# Calls of active or inactive are those of the source.
# How the values were obtained:
# [1] = target: Heat shock protein HSP 90-alpha (Homo sapiens, UniProt P07900); assay type: functional, organism-based
# [2] = target: Nonstructural protein 1 (Influenza A virus, UniProt Q194T2); assay type: functional, Influenza A virus (A/California/07/2009(H1N1))
# [3] = NIH-3T3 fibroblast cytotoxicity, dose response, cytotoxicity control, cell-based, fluorescence, Alamar Blue, secondary assay (AID 2327); assay type: functional;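 further: NIH-3T3 mouse fibroblasts cultured with fluconazole at 8 µg/mL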
# [4] = target: T1, Type-1 angiotensin II receptor (Homo sapiens, UniProt P30556); test: antagonism of angiotensin II type 1 receptor – cell-based, uHTS hits, selectivity assay for APJ receptor antagonist project, dose response (AID 463214); assay type: functional;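 further: antagonist potency against angiotensin II stimulated AT1 response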
# T1 sequence (P30556 whole entry): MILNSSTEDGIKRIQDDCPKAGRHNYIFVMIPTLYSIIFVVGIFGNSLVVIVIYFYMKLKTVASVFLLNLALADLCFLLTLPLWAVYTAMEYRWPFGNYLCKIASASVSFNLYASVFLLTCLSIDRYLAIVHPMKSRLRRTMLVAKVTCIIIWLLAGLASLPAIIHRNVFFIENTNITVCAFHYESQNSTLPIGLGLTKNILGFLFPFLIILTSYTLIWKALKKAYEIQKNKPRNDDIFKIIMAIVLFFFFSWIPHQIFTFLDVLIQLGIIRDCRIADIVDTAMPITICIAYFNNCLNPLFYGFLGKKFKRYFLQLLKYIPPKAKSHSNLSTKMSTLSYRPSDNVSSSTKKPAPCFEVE
# [5] = target: Beta-galactosidase (Escherichia coli, UniProt Q8VNN2); test: PubChem AID 485352; assay type: functional
# [6] = target: T2, Protein skinhead-1 (Caenorhabditis elegans, UniProt P34707); assay type: functional
# T2 sequence (P34707 whole entry): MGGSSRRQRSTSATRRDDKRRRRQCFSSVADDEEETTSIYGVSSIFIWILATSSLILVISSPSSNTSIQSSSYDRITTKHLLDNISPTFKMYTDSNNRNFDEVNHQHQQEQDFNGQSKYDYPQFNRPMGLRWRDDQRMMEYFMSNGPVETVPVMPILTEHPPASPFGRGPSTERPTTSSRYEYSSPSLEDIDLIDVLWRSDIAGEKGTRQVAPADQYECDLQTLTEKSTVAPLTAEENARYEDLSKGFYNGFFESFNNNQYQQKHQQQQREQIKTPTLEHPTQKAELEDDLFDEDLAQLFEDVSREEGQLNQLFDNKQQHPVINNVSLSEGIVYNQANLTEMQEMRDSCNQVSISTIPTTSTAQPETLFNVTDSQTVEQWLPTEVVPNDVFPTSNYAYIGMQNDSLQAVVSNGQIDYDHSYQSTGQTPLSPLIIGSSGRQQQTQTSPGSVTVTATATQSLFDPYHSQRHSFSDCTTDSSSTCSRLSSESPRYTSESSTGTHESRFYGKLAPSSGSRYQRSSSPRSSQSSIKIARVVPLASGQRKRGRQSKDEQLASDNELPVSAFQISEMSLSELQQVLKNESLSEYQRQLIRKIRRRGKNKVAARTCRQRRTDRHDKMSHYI
# [7] = target: T3, Leucine aminopeptidase (Plasmodium falciparum 3D7, UniProt Q8IL11); test: P. falciparum M17LAP inhibitors, primary screen, biochemical, fluorogenic H-Leu-NHMec substrate, 1536-well (AID 1619); assay type: functional
# T3 sequence (Q8IL11 whole entry): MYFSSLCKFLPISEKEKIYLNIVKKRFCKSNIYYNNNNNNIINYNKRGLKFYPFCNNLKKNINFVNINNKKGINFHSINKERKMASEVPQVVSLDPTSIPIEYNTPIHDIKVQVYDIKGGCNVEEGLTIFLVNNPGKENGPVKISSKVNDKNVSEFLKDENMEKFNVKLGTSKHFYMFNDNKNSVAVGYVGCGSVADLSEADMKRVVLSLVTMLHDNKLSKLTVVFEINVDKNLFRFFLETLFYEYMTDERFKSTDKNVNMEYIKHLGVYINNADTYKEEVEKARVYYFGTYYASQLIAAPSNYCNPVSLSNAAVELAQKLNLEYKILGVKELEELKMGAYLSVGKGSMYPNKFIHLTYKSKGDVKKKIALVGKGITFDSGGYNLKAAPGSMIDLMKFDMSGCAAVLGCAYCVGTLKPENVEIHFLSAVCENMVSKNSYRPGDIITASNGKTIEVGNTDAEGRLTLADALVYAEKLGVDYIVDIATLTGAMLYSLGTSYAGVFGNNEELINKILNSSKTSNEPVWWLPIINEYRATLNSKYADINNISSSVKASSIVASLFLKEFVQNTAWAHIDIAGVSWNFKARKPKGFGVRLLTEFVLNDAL
# [8] = target: T4, Coagulation factor XII (Homo sapiens, UniProt P00748); assay type: functional;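 further: activated factor XIIa alpha cleaving a fluorogenic AMC peptide substrate; inhibitor potency from loss of enzyme activity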
# T4 sequence (P00748 whole entry): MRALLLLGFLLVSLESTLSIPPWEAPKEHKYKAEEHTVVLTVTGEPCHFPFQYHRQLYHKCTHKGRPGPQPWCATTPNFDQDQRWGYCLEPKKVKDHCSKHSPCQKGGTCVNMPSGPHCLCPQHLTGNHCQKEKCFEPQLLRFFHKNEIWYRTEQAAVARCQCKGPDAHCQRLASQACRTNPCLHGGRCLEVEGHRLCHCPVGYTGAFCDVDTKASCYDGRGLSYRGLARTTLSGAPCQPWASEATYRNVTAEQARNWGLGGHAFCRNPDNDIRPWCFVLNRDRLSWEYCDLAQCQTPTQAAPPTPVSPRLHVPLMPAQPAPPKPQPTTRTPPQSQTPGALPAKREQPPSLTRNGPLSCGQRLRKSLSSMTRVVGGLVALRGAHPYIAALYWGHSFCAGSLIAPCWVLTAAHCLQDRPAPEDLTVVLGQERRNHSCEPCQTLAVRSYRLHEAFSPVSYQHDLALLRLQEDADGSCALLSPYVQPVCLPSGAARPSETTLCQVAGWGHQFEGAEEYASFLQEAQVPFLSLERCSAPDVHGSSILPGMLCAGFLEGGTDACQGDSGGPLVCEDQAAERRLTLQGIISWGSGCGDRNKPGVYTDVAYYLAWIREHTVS
# [9] = intracellular Trypanosoma cruzi inhibitors in host cells – cell-based, plate reader, cherry-pick samples, set 3, dose response (AID 651818); assay type: functional;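 further: compounds incubated with infected cells for about four days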
# [10] = target: T5, Heat shock factor protein 1 (Mus musculus, UniProt P38532); test: decrease of HSF1-responsive luciferase luminescence – cell-based, NIH3T3, dose retest, confirmation (AID 2382); assay type: functional;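 further: NIH3T3 fibroblasts with HSF1-driven luciferase reporter stressed by proteasome inhibitor MG132; luminescence from HSF1-driven luciferase expression after 8 hours of MG132 stress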
# T5 sequence (P38532 whole entry): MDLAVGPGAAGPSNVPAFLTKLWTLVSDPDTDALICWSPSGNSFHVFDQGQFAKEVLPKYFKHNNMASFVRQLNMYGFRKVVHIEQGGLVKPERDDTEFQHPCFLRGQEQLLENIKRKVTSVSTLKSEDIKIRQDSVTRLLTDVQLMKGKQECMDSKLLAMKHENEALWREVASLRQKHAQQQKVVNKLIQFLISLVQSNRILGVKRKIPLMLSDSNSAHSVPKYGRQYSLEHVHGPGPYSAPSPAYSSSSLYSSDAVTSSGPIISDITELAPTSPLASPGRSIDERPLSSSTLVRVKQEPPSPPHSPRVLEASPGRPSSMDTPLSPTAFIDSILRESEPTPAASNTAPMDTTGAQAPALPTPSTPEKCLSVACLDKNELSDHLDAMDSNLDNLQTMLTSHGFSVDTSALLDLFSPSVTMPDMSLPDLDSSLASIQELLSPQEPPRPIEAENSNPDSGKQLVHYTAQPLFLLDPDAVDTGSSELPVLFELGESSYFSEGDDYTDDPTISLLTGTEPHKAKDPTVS
# [11] = target: T6, Fatty acid synthase (Homo sapiens, UniProt P49327); test: inhibition of human FAS-TE enzyme activity – biochemical, kinetic fluorescence intensity, dose response (AID 624326); assay type: functional;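 further: rate of fluorescence rise from hydrolysis of a fluorogenic O-methyl fluorescein ester substrate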
# [12] = test system: Streptococcus; test: GAS UMAA2166 growth inhibition – luminescence, BacTiterGlo, counter-screen for streptokinase expression inhibitor project, dose response (AID 1915); assay type: functional, organism-based;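 further: potency for reduction of bacterial viability or growth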
# [13] = test system: Streptococcus sp. 'group A'; test: Streptococcus pyogenes SK(-)GAS viability under kanamycin – luminescence, BacTiterGlo, confirmation, counter-screen for streptokinase expression inhibitor project, dose response (AID 1900); assay type: functional, organism-based
# [14] = target: T6, Fatty acid synthase; test: inhibition of human FAS-TE enzyme activity – biochemical, endpoint fluorescence intensity, uHTS hits, dose response (AID 624327); assay type: functional;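 further: fluorescence from hydrolysis of an O-methyl fluorescein acyl ester substrate by the enzyme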
# [15] = viability of PTEN-deleted HCT116 cells – cell-based, HCT116 PTEN knockout, dose response (AID 1047); assay type: functional;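 further: HCT116 colon tumor cells with PTEN knocked out; cells exposed to compound for 60 hours before readout; potency for loss of cell viability measured by luminescence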
# [16] = viability of HCT116 lacking mutant beta-catenin – cell-based, human colon tumor, dose response (AID 1045); assay type: functional;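 further: HCT116 colon tumor cells with beta catenin knocked out; cells exposed to compound for 60 hours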
# Chain of Beta-galactosidase (Q8VNN2 whole entry): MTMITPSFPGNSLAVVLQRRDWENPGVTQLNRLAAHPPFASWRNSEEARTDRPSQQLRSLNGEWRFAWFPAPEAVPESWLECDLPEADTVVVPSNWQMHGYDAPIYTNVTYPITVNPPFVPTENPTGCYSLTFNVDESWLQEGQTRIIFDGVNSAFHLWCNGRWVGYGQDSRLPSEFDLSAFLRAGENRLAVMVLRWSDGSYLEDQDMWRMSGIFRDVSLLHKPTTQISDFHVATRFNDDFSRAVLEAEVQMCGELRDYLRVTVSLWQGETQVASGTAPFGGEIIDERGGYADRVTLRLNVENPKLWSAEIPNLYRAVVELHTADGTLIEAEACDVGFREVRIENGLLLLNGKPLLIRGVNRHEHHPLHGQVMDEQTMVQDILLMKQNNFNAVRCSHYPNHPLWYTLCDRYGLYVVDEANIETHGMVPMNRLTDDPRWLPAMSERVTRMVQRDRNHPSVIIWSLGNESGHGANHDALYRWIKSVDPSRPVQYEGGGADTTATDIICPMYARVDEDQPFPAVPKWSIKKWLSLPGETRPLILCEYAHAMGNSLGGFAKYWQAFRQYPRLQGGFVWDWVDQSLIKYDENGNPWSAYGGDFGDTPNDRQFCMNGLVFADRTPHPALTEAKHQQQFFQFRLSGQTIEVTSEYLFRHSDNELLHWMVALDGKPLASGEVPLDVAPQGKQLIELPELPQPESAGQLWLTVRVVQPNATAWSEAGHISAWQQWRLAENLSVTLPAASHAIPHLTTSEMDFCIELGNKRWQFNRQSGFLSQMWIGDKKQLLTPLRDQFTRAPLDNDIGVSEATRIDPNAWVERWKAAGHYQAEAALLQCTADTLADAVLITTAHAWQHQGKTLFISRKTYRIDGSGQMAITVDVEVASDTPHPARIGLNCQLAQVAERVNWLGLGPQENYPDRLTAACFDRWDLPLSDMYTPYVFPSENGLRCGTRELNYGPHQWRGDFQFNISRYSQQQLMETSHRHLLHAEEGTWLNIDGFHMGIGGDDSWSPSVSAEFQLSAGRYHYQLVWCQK
# Chain of Nonstructural protein 1 (Q194T2 whole entry): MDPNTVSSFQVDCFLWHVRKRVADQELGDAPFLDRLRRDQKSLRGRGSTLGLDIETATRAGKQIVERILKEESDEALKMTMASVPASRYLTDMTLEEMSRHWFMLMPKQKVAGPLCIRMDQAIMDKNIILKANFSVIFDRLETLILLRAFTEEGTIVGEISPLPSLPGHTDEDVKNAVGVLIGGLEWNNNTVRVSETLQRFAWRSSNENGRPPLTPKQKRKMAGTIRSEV
# T6 sequence (P49327 whole entry): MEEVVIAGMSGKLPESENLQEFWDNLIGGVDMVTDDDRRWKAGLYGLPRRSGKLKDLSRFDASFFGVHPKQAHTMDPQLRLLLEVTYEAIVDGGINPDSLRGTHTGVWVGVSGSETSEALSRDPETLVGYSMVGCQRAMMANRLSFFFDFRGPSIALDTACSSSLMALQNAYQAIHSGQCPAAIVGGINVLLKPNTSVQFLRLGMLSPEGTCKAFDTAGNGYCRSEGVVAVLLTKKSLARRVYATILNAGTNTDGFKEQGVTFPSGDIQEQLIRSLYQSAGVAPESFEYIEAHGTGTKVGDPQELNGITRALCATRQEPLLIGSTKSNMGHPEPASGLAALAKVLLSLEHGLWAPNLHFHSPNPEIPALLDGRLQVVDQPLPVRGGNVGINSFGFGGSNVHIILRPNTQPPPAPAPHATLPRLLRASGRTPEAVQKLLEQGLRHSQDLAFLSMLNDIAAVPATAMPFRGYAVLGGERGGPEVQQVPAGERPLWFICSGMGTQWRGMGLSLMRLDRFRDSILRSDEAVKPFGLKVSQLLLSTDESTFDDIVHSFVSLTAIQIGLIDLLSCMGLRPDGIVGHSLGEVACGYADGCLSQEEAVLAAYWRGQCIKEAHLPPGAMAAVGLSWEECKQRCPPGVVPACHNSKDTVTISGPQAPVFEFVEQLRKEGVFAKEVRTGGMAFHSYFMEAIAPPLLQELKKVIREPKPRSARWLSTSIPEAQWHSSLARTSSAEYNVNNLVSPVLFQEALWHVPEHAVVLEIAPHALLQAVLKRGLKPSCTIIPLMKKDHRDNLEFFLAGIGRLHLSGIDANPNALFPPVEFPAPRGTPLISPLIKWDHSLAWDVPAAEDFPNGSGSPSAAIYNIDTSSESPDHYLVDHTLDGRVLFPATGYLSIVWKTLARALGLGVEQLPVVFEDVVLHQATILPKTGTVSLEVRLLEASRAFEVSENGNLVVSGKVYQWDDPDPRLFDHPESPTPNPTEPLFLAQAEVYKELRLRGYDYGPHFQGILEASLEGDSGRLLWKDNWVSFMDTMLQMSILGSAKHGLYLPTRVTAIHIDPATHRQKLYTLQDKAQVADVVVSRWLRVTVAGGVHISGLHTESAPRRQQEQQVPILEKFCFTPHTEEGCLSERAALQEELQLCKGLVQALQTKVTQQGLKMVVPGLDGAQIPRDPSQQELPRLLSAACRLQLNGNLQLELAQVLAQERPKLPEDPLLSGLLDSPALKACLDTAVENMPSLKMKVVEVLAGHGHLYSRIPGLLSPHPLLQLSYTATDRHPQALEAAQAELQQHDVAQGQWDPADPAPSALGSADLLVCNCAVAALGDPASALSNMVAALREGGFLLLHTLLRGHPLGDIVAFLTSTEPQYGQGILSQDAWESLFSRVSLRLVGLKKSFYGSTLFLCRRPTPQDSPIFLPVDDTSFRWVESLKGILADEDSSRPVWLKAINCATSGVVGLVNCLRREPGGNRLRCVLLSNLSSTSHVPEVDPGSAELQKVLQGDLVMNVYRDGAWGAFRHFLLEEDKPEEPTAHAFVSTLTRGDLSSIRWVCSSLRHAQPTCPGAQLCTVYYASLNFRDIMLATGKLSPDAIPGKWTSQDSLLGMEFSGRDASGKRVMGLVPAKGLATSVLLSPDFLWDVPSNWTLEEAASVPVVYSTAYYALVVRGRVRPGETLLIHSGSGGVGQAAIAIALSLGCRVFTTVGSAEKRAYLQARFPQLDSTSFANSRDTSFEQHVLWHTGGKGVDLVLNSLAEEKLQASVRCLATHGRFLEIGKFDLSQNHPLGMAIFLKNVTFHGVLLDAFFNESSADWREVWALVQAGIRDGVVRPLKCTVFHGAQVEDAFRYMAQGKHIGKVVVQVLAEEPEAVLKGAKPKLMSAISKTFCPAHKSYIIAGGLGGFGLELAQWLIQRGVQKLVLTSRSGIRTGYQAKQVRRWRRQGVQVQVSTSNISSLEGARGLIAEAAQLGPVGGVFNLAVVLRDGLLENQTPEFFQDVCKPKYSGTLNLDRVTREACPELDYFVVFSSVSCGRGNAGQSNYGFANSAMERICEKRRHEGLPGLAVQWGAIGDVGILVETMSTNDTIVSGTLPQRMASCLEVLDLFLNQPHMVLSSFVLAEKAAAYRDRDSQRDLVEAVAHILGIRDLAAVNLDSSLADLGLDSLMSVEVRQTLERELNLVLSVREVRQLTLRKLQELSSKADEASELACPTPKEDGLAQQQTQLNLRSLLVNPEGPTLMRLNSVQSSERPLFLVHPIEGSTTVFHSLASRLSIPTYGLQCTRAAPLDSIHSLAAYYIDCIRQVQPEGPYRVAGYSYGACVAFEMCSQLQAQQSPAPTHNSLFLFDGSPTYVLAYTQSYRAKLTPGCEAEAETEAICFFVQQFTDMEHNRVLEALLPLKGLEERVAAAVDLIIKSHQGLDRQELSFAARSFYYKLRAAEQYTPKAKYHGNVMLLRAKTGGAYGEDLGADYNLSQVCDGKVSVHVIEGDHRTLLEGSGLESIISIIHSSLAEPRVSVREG
smiles,measurement,setting,value
O=C(NCc1ccc2c(c1)OCO2)c1ccc(Br)cc1,AC50,[1],4.38 µM (active)
c1cnc2c(c1)ccc1cccnc12,IC50,[2],1.03 µM (active)
same,EC50,[3],6.76 µM (inconclusive)
CCOC(=O)C1=NNC(C(=O)c2ccc(Cl)cc2)C1c1ccccc1 (centres undefined),IC50,[4],39.9 µM (not active)
same,EC50,[5],> 40 µM (inactive)
O=C(CCN1C(=O)C2C3CC(C(Br)C3Br)C2C1=O)OCC(=O)c1cccc([N+](=O)[O-])c1 (centres undefined),IC50,[4],28.4 µM (not active)
same,EC50,[5],> 40 µM (inactive)
COc1ccccc1NC(=O)c1ccc(CN2CCOCC2)cc1,IC50,[6],> 100 µM (inactive)
CCN(CC)CC(=O)c1ccc(-c2ccccc2)cc1,IC50,[4],18.8 µM (active)
same,IC50,[7],60.2 µM (active)
same,EC50,[5],> 40 µM (inactive)
O=S(=O)(c1ccc(N2CCCC2)cc1)C(F)(F)F,IC50,[6],> 100 µM (inactive)
Cc1sc(NC(=O)C2=COCCO2)nc1-c1ccc(Cl)cc1,IC50,[6],> 100 µM (inactive)
COc1cccc(/C=N/n2c(N)c(S(=O)(=O)c3cccs3)c3nc4ccccc4nc32)c1OC,IC50,[8],> 50 µM (inactive)
Cc1cc(C(=O)Nc2cccc3c2O[C@@H](CN(C)Cc2ccc(C(=O)Nc4ccccc4N)cc2)[C@@H](C)CN([C@H](C)CO)C3=O)n(C)n1,AC50,[9],2.45 µM (active)
COc1ccc(O)c(/C=N/NC(=O)c2cc(O)nc3ccccc23)c1,IC50,[8],> 50 µM (inactive)
O=C(Cn1nc2ccccc2n1)N/N=C/c1cc([N+](=O)[O-])ccc1O,IC50,[2],5.08 µM (active)
same,EC50,[10],0.691 µM (active)
same,IC50,[11],5.14 µM (active)
same,EC50,[12],0.55 µM (active)
same,EC50,[13],0.419 µM (active)
same,IC50,[14],3.76 µM (active)
CCNc1nc(NC(C)(C)C)nc(N2CCCC2)n1,EC50,[15],25 µM (active)
same,EC50,[16],32.9 µM (active)

# Reference: ChEMBL document CHEMBL1201862, “PubChem BioAssay data set” (2004)
